This is an account of results in EPA's ToxValDB 9.5 (doi:10.2903/j.efsa.2009.343r).

Bounds are passed on as bounds.

One data set deals with Canidae. Particulars: subchronic; duration: 90 days; oral; Dog Other; histopathology: nonneoplastic.
The subject of a further data set is Tagia sp. Particulars: acute; duration: 14 days; mortality.
The test system of the next data set is Pimephales promelas. As to conditions: chronic/long-term; duration: 36 days; development.
The subject of the next data set is Colinus virginianus. Particulars: for NOEL: reproduction developmental.
For data set [1], the system named is Typhlodromus pyri. As to conditions: not reported; F; reproduction.
The next data set has as its system Oryctolagus sp. Particulars: reproduction developmental; body weight.
Another data set has as its system Oncorhynchus mykiss. Particulars: acute; duration: 96 hours; mortality.
Another data set concerns Daphnia magna. Particulars: chronic/long-term; duration: 21 days.
The subject of a further data set is Apis mellifera. As to conditions: acute; duration: 48 hours; oral; unspecified; mortality.
Another data set relates to Anas platyrhynchos. Particulars: oral, mortality.
Data set [2] relates to Typhlodromus pyri. The data set can be described thus: LR50; higher = less toxic. Particulars: not reported; mortality.

The term NOAEL denotes the highest dose or exposure tested at which no adverse effect was seen. Regarding `COc1cnc(OC)n2nc(NS(=O)(=O)c3c(OCC(F)F)cccc3C(F)(F)F)nc12` [Penoxsulam], the NOAEL with Canidae came out at 18 mg/kg-day; in the data set on Oryctolagus sp., 25 mg/kg-day; in the data set on Rattus norvegicus (chronic, duration: 2 years, histopathology: nonneoplastic), 5 mg/kg-day; in the data set with Rattus norvegicus (reproduction developmental, body weight), 100 mg/kg-day; in the data set on Rattus norvegicus (reproduction developmental, reproduction), 300 mg/kg-day. In addition, the LC50 in the data set with Tagia sp. was over 1000 mg/kg; in the data set with Colinus virginianus (acute, duration: 8 days, oral, diet, mortality) it was over 804 mg/kg-day; in the data set on Oncorhynchus mykiss it was over 100 µg/mL; in the data set with Anas platyrhynchos (short-term, duration: 8 days, feed) it was over 1120 mg/kg-day. Also, the NOEC was found to be 10 mg/L with Pimephales promelas and 3.33 mg/L in the data set with Daphnia magna. Moreover, the NOEL came out at 80.1 mg/kg-day with Colinus virginianus (F) and 82.5 mg/kg-day in the data set on Colinus virginianus (M). In the data set with Typhlodromus pyri [1], this compound came in with an LEL of 4 g/ha. In addition, the LD50 with Apis mellifera is over 100 µg/piece; in the data set on Anas platyrhynchos (acute, unspecified) it was over 2000 mg/kg-day; in the data set on Rattus norvegicus (acute, oral, mortality) it was over 5000 mg/kg-day. The LR50 in the data set with Typhlodromus pyri [2] was 7.46 g/ha.
